Source: patent publication US9604933B2, “Pyrazolochalcones as potential anticancer agents” (COUNCIL OF SCIENTIFIC AND INDUSTRIAL RESEARCH, priority 2013, dated 2017)
Read-outs that look alike come from different tables or passages of the source.

How the values were obtained:
[1] = tested on: SK-OV-3; test: NCI SRB cytotoxicity, ovarian SK-OV-3; type: cell-based; details: Homo sapiens, 48 h exposure
Experimental: (§1) The pyrazolochalcones (7e, 8e, 10e, 11e, 12e, 13e and 8f) have been tested against fifty nine human tumor cell lines derived from nine cancer types (leukemia, non-small cell lung cancer, colon cancer, CNS cancer, melanoma, ovarian cancer, renal cancer, prostate cancer and breast cancer) as per the NCI protocol. For each compound, dose response curves for individual cell lines have been measured at a minimum of five concentrations at 10 fold dilutions. A protocol of 48 h continuous drug exposure has been used, and a sulforhodamine B (SRB) protein assay has been used to estimate cell viability or growth. The concentration for 50% cell growth inhibition (GI50), 50% cell death (LC50, 50% growth) and total cell growth inhibition (TGI, 0% growth) values were tabulated (Table-1). DMSO was used as control to calculate the values of GI50, LC50 and TGI. The compounds 7e, 8e, 10e, 11e, 12e, 13e and 8f has been evaluated for their in vitro cytotoxicity in […] cell lines from nine human cancer types of leukemia (K-562, SR), non-small cell lung (Hop-62, NCI-H226, NCI-H522), colon (HCT-116, HCT-15, HCC-2998), CNS (SF-539), melanoma (SK-MEL-5, UACC-62, M14), ovarian (IGROV1), renal (A498), prostate (PC3) and breast (BT-549, MDA-MB-435, HS578T) origin. The results are expressed as percent of cell growth determined relative to that of untreated control cells (Table 2).

[2] = tested on: NCI-H23; test: NCI SRB cytotoxicity, non-small cell lung NCI-H23; type: cell-based; details: Homo sapiens, 48 h exposure
Experimental: as §1

[3] = tested on: Leukemia; test: NCI SRB cytotoxicity, leukemia panel average; type: cell-based, human; details: average of cell lines; for CC50: read-out: Log10 LC50 (concentration in mol/L causing 50% cell death) (converted)
Experimental: as §1
(§2) Each cancer type represents the average of six to eight different cancer cell lines.

[4] = tested on: HS 578T; test: NCI SRB cytotoxicity, breast HS 578T; type: cell-based; details: Homo sapiens, 48 h exposure
Experimental: as §1

[5] = tested on: NCI/ADR-RES; test: NCI SRB cytotoxicity, ovarian NCI/ADR-RES; type: cell-based; details: Homo sapiens, 48 h exposure
Experimental: as §1

[6] = tested on: NCI-H226; test: NCI SRB cytotoxicity, non-small cell lung NCI-H226; type: cell-based; details: Homo sapiens, 48 h exposure
Experimental: as §1

[7] = tested on: human tumor cell lines; test: NCI SRB cytotoxicity, all fifty nine human tumor cell lines; type: cell-based; set-up: Log10 TGI mean graph midpoint (MG_MID): unit not given here; details: for GI50: Homo sapiens; for cytotoxicity: against cancer cell lines, in words; for LC50: read-out: Log10 LC50 mean graph midpoint (MG_MID) (converted)
Experimental: as §1
The mean graph midpoint values of Log10 TGI and Log10 LC50 as well as Log10 GI50 for compounds 7e, 8e, 10e, 11e, 12e, 13e and 8f is listed in Table-3. […] The mean graph mid points of Log10 TGI and Log10, LC50 have shown similar pattern to the log10 GI50 mean graph mid points.

[8] = tested on: MOLT-4; test: NCI SRB cytotoxicity, leukemia MOLT-4; type: cell-based; details: Homo sapiens, 48 h exposure
Experimental: as §1

[9] = tested on: LOX IMVI; test: NCI SRB cytotoxicity, melanoma LOX IMVI; type: cell-based; details: Homo sapiens, 48 h exposure
Experimental: as §1

[10] = tested on: CNS; test: NCI SRB cytotoxicity, CNS panel average; type: cell-based, human; details: average of cell lines; for LC50: read-out: Log10 LC50 (concentration in mol/L causing 50% cell death) (converted)
Experimental: as §1, §2

[11] = tested on: HCC-2998; test: NCI SRB cytotoxicity, colon HCC-2998; type: cell-based; details: Homo sapiens, 48 h exposure
Experimental: as §1

[12] = tested on: IGROV1; test: NCI SRB cytotoxicity, ovarian IGROV1; type: cell-based; details: Homo sapiens, IGROV-1, 48 h exposure
Experimental: as §1

[13] = tested on: CAKI-1; test: NCI SRB cytotoxicity, renal CAKI-1; type: cell-based; details: Homo sapiens, 48 h exposure
Experimental: as §1

[14] = tested on: KM12; test: NCI SRB cytotoxicity, colon KM12; type: cell-based; details: Homo sapiens, 48 h exposure
Experimental: as §1

[15] = tested on: M14; test: NCI SRB cytotoxicity, melanoma M14; type: cell-based; details: Homo sapiens, 48 h exposure
Experimental: as §1

[16] = tested on: PC-3; test: NCI SRB cytotoxicity, prostate PC-3; type: cell-based; details: Homo sapiens, 48 h exposure
Experimental: as §1

[17] = tested on: SW-620; test: NCI SRB cytotoxicity, colon SW-620; type: cell-based; details: Homo sapiens, 48 h exposure
Experimental: as §1

[18] = tested on: SK-MEL-2; test: NCI SRB cytotoxicity, melanoma SK-MEL-2; type: cell-based; details: Homo sapiens, 48 h exposure
Experimental: as §1

[19] = tested on: Non-small cell lung; test: NCI SRB cytotoxicity, non-small cell lung panel average; type: cell-based, human; details: average of cell lines; for LC50: read-out: Log10 LC50 (concentration in mol/L causing 50% cell death) (converted)
Experimental: as §1, §2

[20] = tested on: SNB-19; test: NCI SRB cytotoxicity, CNS SNB-19; type: cell-based; details: Homo sapiens, 48 h exposure
Experimental: as §1

[21] = tested on: 786-0; test: NCI SRB cytotoxicity, renal 786-0; type: cell-based; details: Homo sapiens, 48 h exposure
Experimental: as §1

[22] = tested on: Ovarian; test: NCI SRB cytotoxicity, ovarian panel average; type: cell-based, human; details: average of cell lines; for CC50: read-out: Log10 LC50 (concentration in mol/L causing 50% cell death) (converted)
Experimental: as §1, §2

[23] = tested on: MDA-MB-231/ATCC; test: NCI SRB cytotoxicity, breast MDA-MB-231/ATCC; type: cell-based; details: Homo sapiens, 48 h exposure
Experimental: as §1

[24] = tested on: Colon; test: NCI SRB cytotoxicity, colon panel average; type: cell-based, human; details: average of cell lines; for LC50: read-out: Log10 LC50 (concentration in mol/L causing 50% cell death) (converted)
Experimental: as §1, §2

[25] = tested on: K-562; test: NCI SRB cytotoxicity, leukemia K-562; type: cell-based; details: Homo sapiens, K562, 48 h exposure
Experimental: as §1

[26] = tested on: A498; test: NCI SRB cytotoxicity, renal A498; type: cell-based; details: Homo sapiens, 48 h exposure
Experimental: as §1

[27] = tested on: OVCAR-5; test: NCI SRB cytotoxicity, ovarian OVCAR-5; type: cell-based; details: Homo sapiens, 48 h exposure
Experimental: as §1

[28] = tested on: NCI-H522; test: NCI SRB cytotoxicity, non-small cell lung NCI-H522; type: cell-based; details: Homo sapiens, 48 h exposure
Experimental: as §1

[29] = tested on: NCIH322M; test: NCI SRB cytotoxicity, non-small cell lung NCIH322M; type: cell-based; details: Homo sapiens, NCI-H322M, 48 h exposure
Experimental: as §1

[30] = tested on: HT29; test: NCI SRB cytotoxicity, colon HT29; type: cell-based; details: Homo sapiens, HT-29, 48 h exposure
Experimental: as §1

[31] = tested on: SR; test: NCI SRB cytotoxicity, leukemia SR; type: cell-based; details: Homo sapiens, 48 h exposure
Experimental: as §1

[32] = tested on: MCF7; test: NCI SRB cytotoxicity, breast MCF7; type: cell-based; details: Homo sapiens, 48 h exposure
Experimental: as §1

[33] = tested on: COLO-205; test: NCI SRB cytotoxicity, colon COLO-205; type: cell-based; details: Homo sapiens, 48 h exposure
Experimental: as §1

[34] = tested on: UACC-62; test: NCI SRB cytotoxicity, melanoma UACC-62; type: cell-based; details: Homo sapiens, 48 h exposure
Experimental: as §1

[35] = tested on: SK-MEL-28; test: NCI SRB cytotoxicity, melanoma SK-MEL-28; type: cell-based; details: Homo sapiens, 48 h exposure
Experimental: as §1

[36] = Homo sapiens, read-out: Log10 GI50 (concentration in mol/L causing 50% growth inhibition) (converted)
[37] = across fifty nine cell lines in nine cell panels, read-out: GI50 value range
[38] = against human tumor cell lines, read-out: Log10 GI50 mean graph midpoint (MG_MID) (converted)

COc1ccc(C(=O)/C=C/c2cc(-c3cc(OC)c(OC)c(OC)c3)n[nH]2)cc1OC [8e, (E)-1-(3,4-dimethoxyphenyl)-3-(3-(3,4,5-trimethoxyphenyl)-1H-pyrazol-5-yl)prop-2-en-1-one]
GI50 [1]: 2.79 µM
GI50 [2]: 2.15 µM
GI50 [3, 36]: 794 nM
CC50 ([3]; Homo sapiens): 97.7 µM
Log10 TGI (concentration in mol/L causing total growth inhibition (0% growth)) [3]: −5.19 mol/L
GI50 [4]: 2570 nM
GI50 [5]: 3.13 µM
GI50 [6]: 1690 nM
GI50 [7, 37]: 180 to 29200 nM
GI50 [7, 38]: 1350 nM
cytotoxicity [7]: significant cytotoxicity
Log10 TGI mean graph midpoint (MG_MID) ([7]; against human tumor cell lines): −5.47
LC50 ([7]; against human tumor cell lines): 10.5 µM
GI50 [8]: 2110 nM
GI50 [9]: 1380 nM
GI50 [10, 36]: 1410 nM
LC50 ([10]; Homo sapiens): 6.17 µM
Log10 TGI (concentration in mol/L causing total growth inhibition (0% growth)) [10]: −5.53 mol/L
GI50 [11]: 2.13 µM
GI50 [12]: 1800 nM
GI50 [13]: 2200 nM
GI50 [14]: 1070 nM
GI50 [15]: 1.84 µM
GI50 [16]: 1360 nM
GI50 [17]: 1370 nM
GI50 [18]: 1.85 µM
GI50 [19, 36]: 1230 nM
LC50 ([19]; Homo sapiens): 6.46 µM
Log10 TGI (concentration in mol/L causing total growth inhibition (0% growth)) [19]: −5.58 mol/L
GI50 [20]: 1420 nM
GI50 [21]: 1400 nM
GI50 [22, 36]: 2090 nM
CC50 ([22]; Homo sapiens): 15.1 µM
Log10 TGI (concentration in mol/L causing total growth inhibition (0% growth)) [22]: −5.29 mol/L
GI50 [23]: 1480 nM
GI50 [24, 36]: 1410 nM
LC50 ([24]; Homo sapiens): 6.17 µM
Log10 TGI (concentration in mol/L causing total growth inhibition) [24]: −5.52 mol/L
GI50 [25]: 1910 nM
GI50 [26]: 1480 nM
GI50 [27]: 1590 nM
GI50 [28]: 180 nM
GI50 [29]: 1520 nM
GI50 [30]: 1620 nM
GI50 [31]: 270 nM
GI50 [32]: 820 nM
GI50 [33]: 1740 nM
GI50 [34]: 1740 nM
GI50 [35]: 1.78 µM

COc1ccc(C(=O)/C=C/c2cc(-c3ccc4c(c3)OCO4)n[nH]2)cc1OC [8f, (E)-3-(3-(benzo[d][1,3]dioxol-5-yl)-1H-pyrazol-5-yl)-1-(3,4-dimethoxyphenyl)prop-2-en-1-one]
GI50 [1]: 3.97 µM
GI50 [2]: 4.12 µM
CC50 ([3]; Homo sapiens): 100 µM
Log10 GI50 (concentration in mol/L causing 50% growth inhibition) [3]: −5.69 mol/L
Log10 TGI (concentration in mol/L causing total growth inhibition (0% growth)) [3]: −5.03 mol/L
GI50 [4]: 2600 nM
GI50 [6]: 3400 nM
GI50 [7, 37]: 180 to 29200 nM
GI50 [7, 38]: 2750 nM
cytotoxicity [7]: significant cytotoxicity
Log10 TGI mean graph midpoint (MG_MID) ([7]; against human tumor cell lines): −4.98
LC50 ([7]; against human tumor cell lines): 43.7 µM
GI50 [8]: 3000 nM
GI50 [9]: 1970 nM
LC50 ([10]; Homo sapiens): 155 µM
Log10 GI50 (concentration in mol/L causing 50% growth inhibition) [10]: −5.65 mol/L
Log10 TGI (concentration in mol/L causing total growth inhibition (0% growth)) [10]: −5.14 mol/L
GI50 [11]: 4.99 µM
GI50 [12]: 2790 nM
GI50 [13]: 1900 nM
GI50 [14]: 2860 nM
GI50 [15]: 6.36 µM
GI50 [16]: 2500 nM
GI50 [17]: 2050 nM
GI50 [18]: 6.93 µM
LC50 ([19]; Homo sapiens): 513 µM
Log10 GI50 (concentration in mol/L causing 50% growth inhibition) [19]: −5.6 mol/L
Log10 TGI (concentration in mol/L causing total growth inhibition (0% growth)) [19]: −5.08 mol/L
GI50 [20]: 3200 nM
GI50 [21]: 3120 nM
CC50 ([22]; Homo sapiens): 52.5 µM
Log10 GI50 (concentration in mol/L causing 50% growth inhibition) [22]: −5.58 mol/L
Log10 TGI (concentration in mol/L causing total growth inhibition (0% growth)) [22]: −4.87 mol/L
GI50 [23]: 2400 nM
LC50 ([24]; Homo sapiens): 676 µM
Log10 GI50 (concentration in mol/L causing 50% growth inhibition) [24]: −5.52 mol/L
Log10 TGI (concentration in mol/L causing total growth inhibition) [24]: −4.85 mol/L
GI50 [25]: 2470 nM
GI50 [26]: 1550 nM
GI50 [27]: 3360 nM
GI50 [28]: 1820 nM
GI50 [29]: 2480 nM
GI50 [30]: 2980 nM
GI50 [31]: 1270 nM
GI50 [32]: 3200 nM
GI50 [33]: 3840 nM
GI50 [34]: 4100 nM
GI50 [35]: 5.76 µM
